Assay [1] has as its system HGF. Kind of assay: HGF secretion by NHDF (ELISA/BioPlex). The following applies: 48h. It counts as cell-based, human. The procedure: (§1) NHDF, HFDPC, HHFK and NHEM cells were treated with the peptides studied for 48h. At the end of the treatment, cell supernatants were collected and stored at −80° C. until analysis. The factors of interest secreted into the supernatant were assayed by ELISA® (R&D) or BioPlex® (BioRad®).
(§2) The results are expressed as percent increase in the concentration of the factor present in the supernatant relative to the untreated control. The intensity of the effect varies as a function of the concentration of the peptide studied and of the cell type treated.

A further assay relates to NGF. Kind of assay: NGF secretion by NHDF (ELISA/BioPlex). The following applies: 48h. In kind it is cell-based, human. The procedure:
as §1, §2

The subject of assay [2] is VEGF. Kind of assay: VEGF secretion by NHDF (ELISA/BioPlex). In kind it is cell-based, human. Conditions: 48h. The procedure:
as §1, §2

The subject of the next assay is SCF. Kind of assay: SCF secretion by NHDF (ELISA/BioPlex). In kind it is cell-based, human. Conditions: 48h. The procedure: as §1, §2
Assay [3] has as its system PDGF. Kind of assay: PDGF secretion by HFDPC (ELISA/BioPlex). In kind it is cell-based, human. Conditions: 48h. On the procedure: as §1, §2
In assay [4] the test system is PDGF. Kind of assay: qPCR (TLDA) PDGF gene expression in HFDPC. It counts as cell-based, human. Details: dose or concentration left out as unconfirmed. The following applies: peptide, 24 hours, relative to untreated controls. On the procedure:
(§3) RNA was extracted and purified from cell pellets using the RNA XS Kit (Macherey-Nagel). RNA quantification was carried out with a NanoDrop device and sample quality was verified on a Bioanalyzer with RNA 6000 Nano chips (Agilent). cDNA was synthesized from 300 ng of RNA using the High-Capacity cDNA Reverse Transcription Kit (LifeTech). Quality-control qPCR assays of the cDNA were carried out in microplates on the reference gene, GAPDH, and the SIRT1 gene.
(§4) Final qPCR experiments were carried out in a 1 μl volume on microfluidic cards (TaqMan Low Density Arrays, LifeTech) and the ABI 7900HT qPCR device. Amplification reactions were performed in duplicate using 1 to 2 ng of cDNA per qPCR reaction and TaqMan Universal Master Mix II (LifeTech).
(§5) Ct values were obtained using the RQ Manager software. For analyses of qPCR results, Ct values were limited to 35 cycles and the duplicate assays are averaged. The GeneXPro software was used for the studies of stability and of selection of the best reference genes. Expression variations are calculated by the relative quantification method and are expressed as percent increase in expression of the gene of interest relative to the untreated controls.

In assay [5] the test system is KGF. Kind of assay: qPCR (TLDA) KGF gene expression in HFDPC. It counts as cell-based, human. Also noted: dose or concentration left out as unconfirmed. The following applies: peptide, 24 hours, relative to untreated controls. On the procedure:
as §3, §4, §5

The test system of assay [6] is VEGF. Kind of assay: qPCR (TLDA) VEGF gene expression in HFDPC. In kind it is cell-based, human. The following applies: peptide 10^−5 M (table title), 24 hours, relative to untreated controls. The procedure: as §3, §4, §5
The test system of assay [7] is genes whose expression is reduced in subjects characterized by alopecia. Kind of assay: qPCR (TLDA) overall statement, genes involved in alopecia, HFDPC. In kind it is cell-based, human. Conditions: summary of Table 1. The procedure: (§6) To study the effect of 9 peptides on these genes, HFDPC were treated for 24 hours with the molecules tested at 10^−7M and 10^−9M concentrations.
as §3, §4, §5

Assay [8] deals with HGF. Kind of assay: HGF secretion by HFDPC (ELISA/BioPlex). It counts as cell-based, human. Conditions: 48h. The procedure: as §1, §2
The test system of the next assay is IGF1. Kind of assay: qPCR (TLDA) IGF1 gene expression in HFDPC. The following applies: relative to untreated controls. It counts as cell-based, human. The procedure: as §6, §3, §4, §5
For assay [9], the system named is HGF. Kind of assay: HGF secretion by HHFK (ELISA/BioPlex). It counts as cell-based, human. The following applies: 10^−7 M, 48h. On the procedure: as §1, §2
Assay [10] concerns BMP2. Kind of assay: qPCR (TLDA) BMP2 gene expression in HFDPC. In kind it is cell-based, human. Conditions: peptide 10^−7, 24 hours, relative to untreated controls. The procedure:
as §6, §3, §4, §5

Assay [11] deals with KGF. Kind of assay: KGF secretion by HFDPC (ELISA/BioPlex). It counts as cell-based, human. Conditions: 48h. On the procedure:
as §1, §2

The subject of assay [12] is VEGF. Kind of assay: VEGF secretion by HFDPC (ELISA/BioPlex). In kind it is cell-based, human. Conditions: 48h. On the procedure: as §1, §2
The test system of assay [13] is immortalized human skin keratinocytes (HaCaT). Kind of assay: CellTiter-Blue proliferation of HaCaT. It counts as cell-based. Conditions: 10^−5M, 72 hours. The procedure:
Cell proliferation and viability were evaluated in vitro with a kit from Promega, CellTiter-Blue® Cell Viability Assay, for estimating the number of living cells present in the culture. This kit is based on detection, by measurement of fluorescence, of conversion of the dye, resazurin, into a fluorescent product (resorufin) by living and thus metabolically active cells.
The effect of the peptides tested, (1) and (9), at 4 different concentrations (10^−5, 10^−7, 10^−9 and 10^−11M) was examined on five cell types: immortalized human skin keratinocytes (HaCaT), human hair follicular keratinocytes (HHFK), normal human dermal fibroblasts (NHDF), hair follicle dermal papilla cells (HFDPC), and normal human epidermal melanocytes (NHEM) exposed to the molecule studied for 72 hours.

For another assay, the system named is follicular markers. Kind of assay: Follicular markers in isolated hair ex vivo (immunolabeling). It counts as cell-based, human. The following applies: end of treatment D11 or D12, value = marker increased. The procedure: (§7) This study was carried out on microdissected hairs from scalp surgery specimens from women aged 52 to 71 years. Isolated hairs were kept alive for 11 to 12 days in Williams medium, under conventional cell culture conditions (37° C., 5% CO2). […]
(§8) To evaluate the effect of (1), (6) or (9) on hair growth, the hairs were photographed and their lengths measured using image analysis software. Thus, the growth of the hairs between D0 and D11/D12 could be calculated and compared with that of the untreated control. At the end of the treatments (D11 or D12), the hairs were collected and frozen or fixed for immunolabeling and histological staining.

In assay [14] the test system is BMP2. Kind of assay: BMP2 secretion by HFDPC (ELISA/BioPlex). In kind it is cell-based, human. The following applies: 10^−9 M, 48h. On the procedure: as §1, §2
Assay [15] deals with microdissected hairs from scalp surgery specimens. Kind of assay: Growth of isolated hair ex vivo. In kind it is cell-based, human. Conditions: for Growth at D 11/D 12 Vs Control: ex vivo isolated hair. On the procedure: as §7, §8
Assay [16] has as its system HGF. Kind of assay: qPCR (TLDA) HGF gene expression in HFDPC. In kind it is cell-based, human. Also noted: dose or concentration left out as unconfirmed. Conditions: peptide, 24 hours, relative to untreated controls. The procedure:
as §3, §4, §5

“Also recorded” adds a separate entry of the source. The star is where a group is joined. Palmitoyl = CCCCCCCCCCCCCCCC(=O)*; Chol = cholesterol residue

“Palm-Ala-Arg-Pro-Ala-Ala-NH2 (Palmitoyl-ARPAA-NH2; SMILES CCCCCCCCCCCCCCCC(=O)N[C@@H](C)C(=O)N[C@@H](CCCNC(=N)N)C(=O)N1CCC[C@H]1C(=O)N[C@@H](C)C(=O)N[C@@H](C)C(N)=O) [(4)]”: the figures for the “HGF secretion, percent increase relative to untreated control” value in the assay on HGF [1] (10^−7 M) and in the assay on HGF [1] (10^−9 M) were “HGF 188%” and “HGF 95%”, respectively. Moreover, the “NGF secretion, percent increase relative to untreated control” value is “NGF 12%” in the assay on NGF (10^−7 M) and “NGF 18%” in the assay with NGF (10^−9 M). Further, the “VEGF secretion, percent increase relative to untreated control” value in the assay on VEGF [2] (10^−7 M) was “VEGF 9%”. The entries for the “SCF secretion, percent increase relative to untreated control” value with SCF (10^−7 M) and with SCF (10^−9 M) were “SCF 6%” and “SCF 8%”, respectively. For the same substance, the “PDGF secretion, percent increase relative to untreated control” value with PDGF [3] (10^−7 M) is listed as “PDGF 8%”.

As for “Palm-Ala-Arg-Pro-Ala-Lys-OH (Palmitoyl-ARPAK-OH; SMILES CCCCCCCCCCCCCCCC(=O)N[C@@H](C)C(=O)N[C@@H](CCCNC(=N)N)C(=O)N1CCC[C@H]1C(=O)N[C@@H](C)C(=O)N[C@@H](CCCCN)C(=O)O) [(2)]”, the “HGF secretion, percent increase relative to untreated control” value is “HGF 13%” in the assay with HGF [1] (10^−7 M), “HGF 403%” in the assay with HGF [8] (10^−5 M), “HGF 565%” in the assay on HGF [8] (10^−7 M) and “HGF 28%” in the assay with HGF [9]. The “% stimulation PDGF gene expression” value in the assay on PDGF [4] came out at 29%. In addition, the “% stimulation KGF gene expression” value in the assay on KGF [5] was 71%. Moreover, the “% stimulation VEGF gene expression” value in the assay with VEGF [6] was 11%. Besides, the “stimulation of genes whose expression is reduced in alopecia (in words)” value in [7] was “stimulate several genes”. Also, the “SCF secretion, percent increase relative to untreated control” value with SCF (10^−5 M) is given as “SCF 24%”; with SCF (10^−7 M) it was “SCF 37%”. Moreover, in the assay on IGF1 (peptide 10^−9, 24 hours), the “% stimulation IGF1 gene expression” value is reported as 136% (10^−9).

As to “H-Ala-Arg-Pro-Ala-Lys-OH (H-ARPAK-OH) [Peptide (1)]”, the “HGF secretion, percent increase relative to untreated control” value in the assay with HGF [1] (10^−9 M) is listed as “HGF 18%”. Also, the “% stimulation KGF gene expression” value with KGF [5] turned out to be 14%. Moreover, in the assay with NGF (10^−9 M), the “NGF secretion, percent increase relative to untreated control” value is recorded as “NGF 13%”. Besides, the “VEGF secretion, percent increase relative to untreated control” value with VEGF [2] (10^−7 M) is recorded as “VEGF 4%”; in the assay on VEGF [2] (10^−9 M), “VEGF5%”; with VEGF [12] (10^−7 M), “VEGF 9%”; in the assay on VEGF [12] (10^−9 M) it was “VEGF 4%”. In the assay on BMP2 [10], the “% stimulation BMP2 gene expression” value is 26% (10^−7). The “stimulation of genes whose expression is reduced in alopecia (in words)” value in assay [7] was “stimulate several genes”. The “PDGF secretion, percent increase relative to untreated control” value in the assay with PDGF [3] (10^−7 M) is given as “PDGF 31%”; in the assay on PDGF [3] (10^−9 M), “PDGF 23%”. Besides, the “KGF secretion, percent increase relative to untreated control” value was “KGF 8%” in the assay with KGF [11] (10^−7 M) and “KGF 25%” in the assay on KGF [11] (10^−9 M). Also, the “stimulation of proliferation of HaCaT” value in [13] was “+15%”. Moreover, the “Follicular markers increased Vs Control” value was “Coll IV; also recorded: Laminin-5” in the assay with follicular markers (10^−1 M); “Coll IV and CD34” in the assay with follicular markers (10^−9 M). Further, the “BMP2 secretion, percent increase relative to untreated control” value in the assay on BMP2 [14] is “BMP2 22%”. The “% stimulation IGF1 gene expression” value with IGF1 (peptide 10^−7, 24 hours) is recorded as 32% (10^−7). Besides, the “Growth at D 11/D 12 Vs Control” value was “No effect” in [15] (10^−1 M) and “+40%” in assay [15] (10^−9 M). The “growth increase compared with minoxidil sulphate” value in assay [15] (peptide 10^−9M, minoxidil sulphate 10^−5 M) was “close to that obtained after treatment with minoxidil sulphate”. Also, the “hair growth after 11 to 12 days of treatment ex vivo (in words)” value in assay [15] (summary of Table 3) is recorded as “stimulate hair growth”.

In the case of “Chol-Ala-Arg-Pro-Ala-Lys-NH2 (Chol-ARPAK-NH2) [(7)]”, the “HGF secretion, percent increase relative to untreated control” value with HGF [1] (10^−7 M) is listed as “HGF 104%”. Besides, in the assay on HGF [16], the “% stimulation HGF gene expression” value stood at 49%. For the same substance, the “NGF secretion, percent increase relative to untreated control” value in the assay on NGF (10^−7 M) is listed as “NGF 11%”. In the assay on SCF (10^−7 M), the “SCF secretion, percent increase relative to untreated control” value is “SCF 10%”.

(Values after patent US10947273B2, “Peptides of use in the preventive and curative treatment of alopecia” (Institut Europeen de Biologie Cellulaire, priority 2015, dated 2021).)
